Here are results for 2 compounds from US20190282496A1 (Bryn Pharma, LLC, priority 2018, published 2019).

In data set [1] the test system is histamine induced nasal congestion.
For data set [2] the following is noted: dogs; concomitant intranasal administration of phentolamine; Bleske et al.; cited from earlier work.

For `NCCc1c[nH]cn1` [Histamine], the “nasal congestion and flow restriction pressure” value in data set [1] (Group 1, 5 and 10 minutes post-histamine exposure) is given as “progressive increase”. In addition, the histamine-induced nasal congestion entry in data set [1] (aerosolized 5% histamine, all animals) is “induced congestion in all animals to varying degrees”. The “histamine induced congestion without epinephrine administration” value in data set [1] (pilot study, 60, 80 and 100 minute time points) is “remains elevated at significant levels”.
Consider `Cc1ccc(N(CC2=NCCN2)c2cccc(O)c2)cc1` [phentolamine], for which the “epinephrine plasma levels following intranasal administration” value in data set [2] is reported as “enhanced”.
